Data as given in US8642621B2, “(4-phenyl-piperidin-1-yl)-[5-(1H-pyrazol-4-yl)-thiophen-3-yl]-methanone compounds and their use” (The University Of Edinburgh, priority 2009, dated 2014).
pIC50: −log10 of the molar value. Where two headings read alike, the source gives them in different places.

Columns and labels:
human 11β-HSD2 = biological target: T1, human 11β-HSD2 (Homo sapiens, UniProt P80365); test: Cellular in vitro 11β-HSD2 enzyme inhibition assay (CHO cells); type: cell-based; conditions: CHO cells stably transfected with human 11β-HSD2; Table 1
T1 construct: CHO cells stably transfected with the full-length gene coding for human 11β-HSD2 were used; expressed in transfected cells
T1 sequence (P80365 1-405): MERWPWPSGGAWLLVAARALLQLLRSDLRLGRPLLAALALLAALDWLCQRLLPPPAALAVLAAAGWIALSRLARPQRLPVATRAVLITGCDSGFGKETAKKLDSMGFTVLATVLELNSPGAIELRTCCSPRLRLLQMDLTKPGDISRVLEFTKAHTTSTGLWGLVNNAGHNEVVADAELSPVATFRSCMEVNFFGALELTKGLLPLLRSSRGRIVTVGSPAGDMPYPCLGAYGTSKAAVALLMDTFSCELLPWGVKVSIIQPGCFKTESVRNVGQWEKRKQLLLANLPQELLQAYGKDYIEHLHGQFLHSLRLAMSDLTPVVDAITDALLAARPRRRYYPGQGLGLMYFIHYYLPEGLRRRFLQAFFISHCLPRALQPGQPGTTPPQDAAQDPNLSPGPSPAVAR
Experimental: Cellular In Vitro 11β-HSD2 Enzyme Inhibition Assay
Assays were carried out in 96-well microplates containing 1×10^5 cells/well. Controls and compounds were plated as above, so that the final DMSO concentration in each well was 1%. To initiate the assay, 90 μL of a solution of HAMS F-12 medium containing 1% glutamine, 1% penicillin and streptomycin, and 22 nM tritiated cortisol was added to each well of the assay plate. The plate was then incubated in 5% CO2, 95% O2 at 37° C. for 16 hours.
The assay solutions were transferred to glass tubes and 20 μL ethyl acetate added to each tube. Each tube was vortexed thoroughly and the upper layer containing the tritiated steroid transferred to a fresh glass tube. The solvent was evaporated by placing the tubes in a heating block at 65° C. under a stream of Nitrogen gas. 20 μL ethanol was added to each of the dried samples and vortexed briefly. Each sample was applied to a silica TLC plate and the plate dried. The plate was placed vertically in a glass tank containing 92% chloroform:8% ethanol and the solvent allowed to rise up the plate. The plate was dried, placed in an imaging cassette, and overlayed with a tritium imaging plate for 1-2 days. The amount of enzyme inhibition in each sample was determined by measuring the intensity of the substrate and product spots using a phosphoimager.
IC50 values for inhibitors were determined as described for 11β-HSD1.

human 11β-HSD1 enzyme = biological target: T2, human 11β-HSD1 enzyme (Homo sapiens, UniProt P28845); test: Cellular in vitro 11β-HSD1 enzyme inhibition assay (SPA, HEK293/11β-HSD1 cells); type: cell-based; conditions: read-out: IC50 for 11β-HSD1 (HEK293)
T2 construct: stably transfected with a construct containing the full-length gene coding for the human 11β-HSD1 enzyme; expressed in transfected cells; HEK293/11β-HSD1 cells)
T2 sequence (P28845 whole entry): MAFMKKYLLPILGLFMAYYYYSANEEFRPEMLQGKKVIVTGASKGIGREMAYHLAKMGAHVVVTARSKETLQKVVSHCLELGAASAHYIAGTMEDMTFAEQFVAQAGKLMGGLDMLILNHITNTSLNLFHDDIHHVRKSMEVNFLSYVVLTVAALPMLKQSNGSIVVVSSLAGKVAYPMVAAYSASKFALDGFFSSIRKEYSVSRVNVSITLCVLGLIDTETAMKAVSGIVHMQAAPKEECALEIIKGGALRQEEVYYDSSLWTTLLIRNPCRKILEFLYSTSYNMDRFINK
Experimental: Cellular In Vitro 11β-HSD1 Enzyme Inhibition Assay
Compounds were assessed by a Scintillation Proximity Assay (SPA) performed according to the following protocol:
HEK293 cells were stably transfected with a construct containing the full-length gene coding for the human 11β-HSD1 enzyme to create HEK293/11β-HSD1 cells. Cells were routinely cultured in DMEM containing 10% calf foetal serum, 1% glutamine, and 1% penicillin and streptomycin. Prior to assay, cells were plated at 2×10^4 cells/well in 96-well poly-D-Lys coated flat-bottomed microplates and incubated in 5% CO2, 95% O2 at 37° C. for 24 hours. The media in each well was removed immediately before assay.
Compounds to be tested were dissolved in DMSO at 10 mM and serially diluted into water containing 10% DMSO. Diluted compounds at a volume of 10 μL were added to wells of a 96-well V-bottomed microplate. A solution of DMEM, 1% glutamine, 1% penicillin and streptomycin, and 22 nM tritiated cortisone was prepared and 90 μL added to each well of the assay plate. This solution (100 μL/well) was transferred to the plate containing the cells. The plate was then incubated in 5% CO2, 95% O2 at 37° C. for 2 hours.
Following this incubation, 50 μL of the assay solution was transferred to each well of a 96-well scintillation microplate. A mixture consisting of anti-mouse YSi SPA beads, pre-mixed with anti-cortisol antibody in assay buffer (50 mM Tris.HCl, pH 7.0; 300 mM NaCl; 1 mM EDTA, 5% glycerol) was prepared and 50 μL added to each well of the scintillation microplate. An adhesive strip was applied to the microplate and the plate gently shaken for at least 2 hours at room temperature, and then spun briefly on a low speed centrifuge. The plate was read on a scintillation counter suitable for 96-well microplates. For the calculation of percentage inhibition, a series of wells were added to the plate that represented the assay maximum and the assay minimum: one set that contained substrate without cells (minimum) and another set that contained substrate and cells without any compound (maximum).
The calculation of median inhibitory concentration (IC50) values for the compounds was performed using GraphPad Prism® software. Dose-response curves for each compound were plotted as fractional inhibition and data fitted to the four parameter logistic equation.

[1] = In vitro human liver microsomal stability assay; type: in vitro ADME; conditions: human liver microsomes
Experimental: In Vitro Human Liver Microsomal Stability Assay
To predict in vivo metabolism of compounds, the stability of compounds incubated with human liver microsomes in vitro was determined. Human liver microsome preparations were stored at −80° C. and thawed on ice prior to use. The thawed microsomes were diluted to a concentration of 2 mg/mL in 50 mM sodium phosphate, pH 7.4. Reference and test compounds were prepared as 10 mM stocks in 100% DMSO and diluted to 1 mM in acetonitrile before use. Each compound was tested in triplicate as follows:
4 μL of test or reference compound was added to a well of a 24-well microplate and 0.5 mL of 4 mM NADPH added. The plate was then transferred to a shaker for 10 minutes at room temperature. 30 μL of the compound/NADPH solution was transferred to the well of a 96-well microplate and incubated at 37° C. for 5 minutes. 30 μL of human liver microsomes (pre-incubated at 37° C. for 5 minutes) was added to the well containing the compound/NADPH solution and the plate incubated for the selected period of time (typically 0 or 30 minutes). The reaction was stopped by adding 60 μL of ice cold […] trichloroacetic acid. The plate was centrifuged at 1000 rpm for 5 minutes at room temperature and the supernatant transferred to the well of a new 96-well v-bottomed microplate for mass spectrometric analysis.
Samples were analyzed by TSQ Quantum Discovery Tandem Mass Spectrometer and Surveyor Liquid Chromatogram (Thermo, Hemel-Hempstead, UK). 10 μL of each sample was injected in a mobile phase consisting of 60%:40% methanol:5 mM ammonium acetate at a flow rate of 0.5 mL/minute. The column used was a BDS hypersil, C18, 50×2.1 mm with a 5 μm particle size.
Each compound was tuned with a spray voltage of 3000 V and a capillary temperature of 300° C. and values for tube lens, CID and product ions were determined.
The peak area for each compound was measured in triplicate for the 0 and 30 minute samples and the average of each was reported. The percentage remaining after 30 minutes was calculated as the average peak area of the sample after 30 minutes divided by the average peak area at 0 minutes. The RSD was 10% or lower for each compound.

Pharmacokinetics in rat = type: in vivo, male Sprague Dawley rats; conditions: male, Sprague Dawley, whole blood, intravenous 1 mg/kg and oral 10 mg/kg, read-out: % F (% Bioavailability)
Experimental: The pharmacokinetics of certain compounds were determined following intravenous (1 mg/kg) and oral (10 mg/kg) administration to male Sprague Dawley rats. Dosing solution was prepared by mixing each compound with 2% DMSO, 38% PEG-400 and 60% (0.9%) NaCl. Solutions were passed through 0.2 μm filters prior to administration.
Following dosing and at appropriate time points, blood samples were taken from a lateral tail vein and transferred into a tube pre-treated with EDTA. Blood samples were analysed for parent compound by LCMS and the quantity of parent compound remaining determined. Non-compartmental analysis was applied to the data using WinNonlin™ software to determine the pharmacokinetic parameters for each compound.

[2] = HEK293 cells stably transfected with human 11β-HSD1, Table 1

| Structure (SMILES) | pIC50 (human 11β-HSD2) | pIC50 (human 11β-HSD1 enzyme; [2]) | pIC50 (human 11β-HSD1 enzyme) | % Parent Remaining at 30 min [1] | bioavailability (Pharmacokinetics in rat) [%] |
| --- | --- | --- | --- | --- | --- |
| O=C(c1csc(-c2cn[nH]c2)c1)N1CCC(O)(c2ccccc2)CC1 [AA-01, (4-Hydroxy-4-phenyl-piperidin-1-yl)-[5-(1H-pyrazol-4-yl)-thiophen-3-yl]-methanone] | < 5.00 | 6.68 | ≥ 6.30 | +++ (61-100% +++) | 31 to 100 |
| O=C(c1csc(-c2cn[nH]c2)c1)N1CCC(O)(c2ccc(Cl)cc2)CC1 [AA-02] |  |  | ≥ 6.30 | +++ (61-100% +++) | 31 to 100 |
| O=C(c1csc(-c2cn[nH]c2)c1)N1CCC(O)(c2ccccc2F)CC1 [AA-04] | < 5.00 | 7.36 | ≥ 6.30 | +++ (61-100% +++) | 31 to 100 |
| O=C(c1csc(-c2cn[nH]c2)c1)N1C2CCC1CC(O)(c1ccccc1)C2 (stereo not shown) [AA-06] | < 5.00 | 7.68 | ≥ 6.30 | +++ (61-100% +++) | 11 to 30 |
| O=C(c1csc(-c2cn[nH]c2)c1)N1CCC(O)(c2ccccc2Cl)CC1 [AA-08] | < 5.00 | 8.00 | ≥ 6.30 | ++ (31-60% ++) | 31 to 100 |
| O=C(c1csc(-c2cn[nH]c2)c1)N1CCC(F)(c2ccccc2)CC1 [AA-17] |  |  | 6.00 to 6.30 | +++ (61-100% +++) | 31 to 100 |
| O=C(c1csc(-c2cn[nH]c2)c1)N1CCC(F)(c2ccccc2F)CC1 [AA-18] | < 5.00 | 6.98 | ≥ 6.30 | ++ (31-60% ++) |  |
| Cc1cccc(F)c1C1(O)CCN(C(=O)c2csc(-c3cn[nH]c3)c2)CC1 [AA-22] | < 5.00 | 7.42 | ≥ 6.30 | +++ (61-100% +++) |  |
| O=C(c1csc(-c2cn[nH]c2)c1)N1C2CCC1CC(O)(c1ccccc1Cl)C2 (stereo not shown) [AA-30] | < 5.00 | 7.82 | ≥ 6.30 | ++ (31-60% ++) |  |
| COC1(c2ccccc2Cl)CCN(C(=O)c2csc(-c3cn[nH]c3)c2)CC1 [AA-33] | < 5.00 | 7.72 | ≥ 6.30 | + (0-30% +) |  |
| O=C(c1csc(-c2cn[nH]c2)c1)N1CCC(F)(c2ccccc2Cl)CC1 [AA-36] | < 5.00 | 7.38 | ≥ 6.30 | + (0-30% +) |  |
| O=C(c1csc(-c2cn[nH]c2)c1)N1CCC(F)(c2cc(F)ccc2Cl)CC1 [AA-37] | < 5.00 | 7.46 | ≥ 6.30 | ++ (31-60% ++) |  |
| COc1ccccc1C1CCN(C(=O)c2csc(-c3cn[nH]c3)c2)CC1 [BB-03] | < 5.00 | 6.97 | ≥ 6.30 | + (0-30% +) |  |
| O=C(c1csc(-c2cn[nH]c2)c1)N1C2CCC1CC(c1ccccc1)C2 (stereo not shown) [BB-08] | < 5.00 | 6.94 | ≥ 6.30 | ++ (31-60% ++) |  |
